Reference: patent publication US8580525B2, “Methods of screening for LTRPC7 modulators” (The Queen's Medical Center, priority 2000, dated 2013)
Entries after “also recorded” stand apart in the source; their conditions may differ.

Tests used:
RBL-2H3 = assay: ATP-dependent endogenous currents, whole-cell patch-clamp; assay type: cell-based; conditions: 6 mM ATP in pipette solution
Procedure: (§1) For patch-clamp experiments, cells grown on glass coverslips were transferred to the recording chamber and kept in a standard modified Ringer's solution of the following composition (in mM): NaCl 145, KCl 2.8, CsCl 10, CaCl2 1, MgCl2 2, glucose 10, Hepes.NaOH 10, pH 7.2. In some experiments, nominally Ca^2+ and/or Mg^2+-free extracellular solutions or isotonic Ca^2+ solutions (120 mM CaCl2) were applied by pressure ejection from wide-tipped pipettes. Intracellular pipette-filling solutions contained (in mM): Cs-glutamate 145, NaCl 8, MgCl2 1, Cs-BAPTA 10, pH 7.2 adjusted with CsOH. In some experiments, Cs-glutamate was replaced equimolarly by K-glutamate or N-methyl-D-glucamine-chloride. Patch-clamp experiments were performed in the tight-seal whole-cell configuration at 21-25° C. High-resolution current recordings were acquired by a computer-based patch-clamp amplifier system (EPC-9, HEKA, Lambrecht, Germany). Sylgard-coated patch pipettes had resistances between 2-4 M after filling with the standard intracellular solution. […] Capacitive currents and series resistance were determined and corrected before each voltage ramp using the automatic capacitance compensation of the EPC-9. […]

Jurkat T-lymphocytes = assay: as above; assay type: cell-based; conditions: 6 mM ATP in pipette solution
Procedure: as §1

Wild type HEK-293 = assay: as above; assay type: cell-based, human; conditions: 6 mM ATP in pipette solution
Procedure: as §1

LTRPC7 [1] = target: T1, LTRPC7 (Mus musculus, UniProt Q923J1); assay: Intracellular perfusion with ATP, whole-cell patch-clamp of recombinant LTRPC7; assay type: cell-based
T1 construct: expressed in transfected cells
Procedure: (§2) For patch-clamp experiments, cells grown on glass coverslips were transferred to the recording chamber and kept in a standard modified Ringer's solution of the following composition (in mM): NaCl 145, KCl 2.8, CsCl 10, CaCl2 1, MgCl2 2, glucose 10, Hepes.NaOH 10, pH 7.2. In some experiments, nominally Ca^2+ and/or Mg^2+-free extracellular solutions or isotonic Ca^2+ solutions (120 mM CaCl2) were applied by pressure ejection from wide-tipped pipettes. Intracellular pipette-filling solutions contained (in mM): Cs-glutamate 145, NaCl 8, MgCl2 1, Cs-BAPTA 10, pH 7.2 adjusted with CsOH. In some experiments, Cs-glutamate was replaced equimolarly by K-glutamate or N-methyl-D-glucamine-chloride. Patch-clamp experiments were performed in the tight-seal whole-cell configuration at 21-25° C. High-resolution current recordings were acquired by a computer-based patch-clamp amplifier system (EPC-9, HEKA, Lambrecht, Germany). Sylgard-coated patch pipettes had resistances between 2-4 M after filling with the standard intracellular solution. Immediately following establishment of the whole-cell configuration, voltage ramps of 50 ms duration spanning the voltage range of −100 to +100 mV were delivered from a holding potential of 0 mV at a rate of 0.5 Hz over a period of 200 to 400 seconds. All voltages were corrected for a liquid junction potential of 10 mV between external and internal solutions when internal solutions contained glutamate. Currents were filtered at 2.3 kHz and digitized at 100 μs intervals. Capacitive currents and series resistance were determined and corrected before each voltage ramp using the automatic capacitance compensation of the EPC-9. The low-resolution temporal development of currents at a given potential was extracted from individual ramp current records by measuring the current amplitudes at voltages of −80 mV or +80 mV.

LTRPC7 [2] = target: T1, LTRPC7; assay: Equimolar substitution of 10 mM Ca^2+ by other divalent metal ions, whole-cell patch-clamp; assay type: cell-based; conditions: 10 mM test cation replacing 10 mM Ca^2+, HEK-293 over-expressing LTRPC7
Procedure: as §2
LTRPC7 represents an ion channel that is selective for divalent cations at negative membrane potentials and its activity is regulated by intracellular levels of Mg.nucleotides (Nadler et al., 2001). Although the channel readily permeates monovalent ions upon removal of all divalent ions, inward currents carried by LTRPC7 under physiological conditions are largely carried by the dominant extracellular ion species Ca^2+ and Mg^2+. Ion currents carried by LTRPC7 have therefore been designated MagNuM (for Magnesium.Nucleotide-regulated Metal ion currents). In order to assess the permeation properties of LTRPC7 for other divalent ions, we measured ionic currents in substitution experiments, where 10 mM Ca^2+ was replaced with 10 mM of other divalent cations (FIG. 7). In these experiments, HEK-293 cells expressing LTRPC7 were kept in a bath solution containing 10 mM Ca^2+, without Mg^2+, and development of MagNuM was monitored by whole-cell patch-clamp as described previously (Nadler et al., 2001). When the current had reached maximal amplitude, cells were transiently exposed to an extracellular solution containing 10 mM of the test cation applied via a puffer pipette for a period of 60 s.

LTRPC7 [3] = target: T1, LTRPC7; assay: Permeation of divalent metal ions in isotonic solutions, whole-cell patch-clamp; assay type: cell-based; conditions: isotonic solution (120 mM) of test cation for 60 s, HEK-293 over-expressing LTRPC7
Procedure: as §2
The use of isotonic solutions to probe divalent cation entry through LTRPC7 avoids complications in permeation properties arising from ion-ion interactions, and therefore allows unequivocal interpretation of inward currents—maintained or increased inward currents can only be consistent with permeation of the available extracellular cation. Isotonic solutions of 120 mM of each divalent ion yielded appropriate osmolarities within 10 mOsm from the standard bath and pipette solutions. In this series of experiments, the cells were bathed in the standard external solution containing 1 mM Ca^2+ and 2 mM Mg^2+. At 200 s, when MagNuM had reached its full amplitude, isotonic solutions of each transition metal were applied for 60 s via a puffer pipette.

LTRPC7 [4] = target: T1, LTRPC7; assay: Mn^2+ quench of fura-2 fluorescence in intact cells; assay type: cell-based; conditions: 1 mM Mn^2+, initial 60 s
Procedure: In the second approach, we assayed LTRPC7 activity in intact cells using Mn^2+ quench of fura-2 fluorescence (FIG. 11D). In this experiment, HEK-293 cells over-expressing LTRPC7 were loaded with fura-2-AM and bathed in standard external solution with 1 mM Ca^2+ and 2 mM Mg^2+. Ca^2+-independent fluorescence was monitored at 360 nm (the isosbestic wavelength of fura-2) and after 120 s, an external solution containing 1 mM Mn^2+, 1 mM Ca^2+, and 0 Mg^2+ was applied for 180 s. To determine baseline quench levels, this protocol was applied to HEK-293 cells that were transfected with the same tetracycline-inducible recombinant LTRPC7 construct, but remained uninduced. As clearly shown in FIG. 11D, the application of 1 mM Mn^2+ caused a pronounced quench of the 360 nm signal in HEK-293 cells induced to express LTRPC7 (n=5), whereas Mn^2+-induced quench of the 360 nm signal in uninduced cells (n=5) was noticeable but much less dramatic. Linear regression over the initial 60 s of Mn^2+ exposure yielded a 10-fold higher rate of Mn^2+-induced quench of fura-2 fluorescence in induced cells (28%/o/min) as compared to uninduced cells (2.9%/min).

T1 sequence (Q923J1 2-1863 limits assumed): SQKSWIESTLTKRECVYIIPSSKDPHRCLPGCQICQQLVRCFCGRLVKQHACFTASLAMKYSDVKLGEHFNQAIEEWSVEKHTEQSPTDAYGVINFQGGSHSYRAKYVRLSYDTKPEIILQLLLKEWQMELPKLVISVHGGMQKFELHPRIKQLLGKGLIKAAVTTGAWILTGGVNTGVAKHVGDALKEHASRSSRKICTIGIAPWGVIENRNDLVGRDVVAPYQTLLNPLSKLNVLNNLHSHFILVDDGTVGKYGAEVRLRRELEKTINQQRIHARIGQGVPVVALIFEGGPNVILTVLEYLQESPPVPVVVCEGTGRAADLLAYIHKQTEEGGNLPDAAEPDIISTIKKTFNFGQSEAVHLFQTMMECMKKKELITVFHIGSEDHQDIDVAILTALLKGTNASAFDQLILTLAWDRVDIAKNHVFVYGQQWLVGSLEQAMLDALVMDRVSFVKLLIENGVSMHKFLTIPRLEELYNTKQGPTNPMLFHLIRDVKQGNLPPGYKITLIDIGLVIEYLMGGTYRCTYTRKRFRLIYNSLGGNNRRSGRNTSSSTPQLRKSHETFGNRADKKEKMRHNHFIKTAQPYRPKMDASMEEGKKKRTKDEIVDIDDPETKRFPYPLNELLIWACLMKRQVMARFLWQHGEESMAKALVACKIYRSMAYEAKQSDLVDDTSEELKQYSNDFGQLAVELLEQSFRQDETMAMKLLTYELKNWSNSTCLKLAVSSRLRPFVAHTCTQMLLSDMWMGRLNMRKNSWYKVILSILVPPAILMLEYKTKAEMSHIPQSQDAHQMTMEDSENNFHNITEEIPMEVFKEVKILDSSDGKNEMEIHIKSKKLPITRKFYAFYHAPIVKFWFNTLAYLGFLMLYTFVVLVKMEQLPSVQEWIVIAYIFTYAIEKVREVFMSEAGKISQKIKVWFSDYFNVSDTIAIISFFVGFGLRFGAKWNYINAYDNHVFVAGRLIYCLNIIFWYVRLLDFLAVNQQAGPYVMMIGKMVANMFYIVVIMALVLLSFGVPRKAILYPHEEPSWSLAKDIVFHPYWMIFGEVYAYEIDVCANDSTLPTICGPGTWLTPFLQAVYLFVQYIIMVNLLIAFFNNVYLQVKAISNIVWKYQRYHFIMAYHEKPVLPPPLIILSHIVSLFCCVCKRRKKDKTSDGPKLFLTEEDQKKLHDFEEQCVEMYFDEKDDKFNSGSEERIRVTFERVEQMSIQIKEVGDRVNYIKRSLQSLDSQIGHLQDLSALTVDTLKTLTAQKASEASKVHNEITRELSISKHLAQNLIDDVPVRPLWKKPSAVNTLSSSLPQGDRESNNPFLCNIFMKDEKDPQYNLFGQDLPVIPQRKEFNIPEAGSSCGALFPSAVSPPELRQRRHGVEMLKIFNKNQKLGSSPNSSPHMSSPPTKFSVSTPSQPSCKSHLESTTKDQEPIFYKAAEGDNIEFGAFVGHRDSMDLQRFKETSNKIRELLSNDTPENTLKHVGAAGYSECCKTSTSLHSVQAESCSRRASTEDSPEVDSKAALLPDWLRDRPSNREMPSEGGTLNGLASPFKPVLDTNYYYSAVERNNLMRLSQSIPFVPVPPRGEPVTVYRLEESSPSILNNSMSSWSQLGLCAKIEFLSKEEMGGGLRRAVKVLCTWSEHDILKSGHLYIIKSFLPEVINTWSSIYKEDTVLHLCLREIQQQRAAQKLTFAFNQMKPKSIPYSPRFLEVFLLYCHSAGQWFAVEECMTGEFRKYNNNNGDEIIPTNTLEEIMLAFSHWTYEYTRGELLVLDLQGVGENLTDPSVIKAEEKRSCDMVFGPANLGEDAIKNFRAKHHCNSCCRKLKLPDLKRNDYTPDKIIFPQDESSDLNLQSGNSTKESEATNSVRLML

| Compound | outwardly rectifying cationic conductance (RBL-2H3) | outwardly rectifying cationic conductance (Jurkat T-lymphocytes) | outwardly rectifying cationic conductance (Wild type HEK-293) | change of maximum outward current after whole-cell establishment (LTRPC7 [1]; 6 mM ATP in pipette, +80 mV, 300 s) | intracellular concentration that causes the LTRPC7 channel to close (LTRPC7 [1]; intracellular ATP) | intracellular concentration that causes the LTRPC7 channel to reopen (LTRPC7 [1]; intracellular ATP) | effect on outward current (LTRPC7 [2]; 60 s, +80 mV) | effect on inward current (LTRPC7 [2]; 60 s, -80 mV) | increase in inward current compared to Ca^2+ (LTRPC7 [2]; no Mg^2+, -80 mV) | effect on outward current (LTRPC7 [3]; +80 mV) | effect on inward current (LTRPC7 [3]; -80 mV) | rate of Mn^2+-induced quench, induced compared to uninduced cells (LTRPC7 [4]) [fold] | rate of Mn^2+-induced quench of fura-2 fluorescence (LTRPC7 [4]; 360 nm, uninduced cells) [%/min] |
| --- | --- | --- | --- | --- | --- | --- | --- | --- | --- | --- | --- | --- | --- |
| Nc1ncnc2c1ncn2[C@@H]1O[C@H](COP(=O)(O)OP(=O)(O)OP(=O)(O)O)[C@@H](O)[C@H]1O [ATP] | absent | absent | absent | currents are actually decreasing after break-in | 6-10 millimolar | 0-4 millimolar |  |  |  |  |  |  |  |
| [Mn+2] [Mn^2+] |  |  |  |  |  |  | block of outward currents; also recorded: block of the outward current | slight to moderate increase of the inward current | less than double | strong block of the outward current | gradual increase of the inward current | 10 | 2.9 |
